Common to all, as to type: in vivo
For test [1], the system named is adult engorged female ticks (Rhipicephalus microplus). In words: Rhipicephalus (Boophilus) microplus injection test. To be noted: 168 h, after 7 days, read-out: efficacy (infertile eggs); for pest or weed control at 0.004 mg: 4 μg/animal. The gist of the method: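 Efficacy is scored from egg fertility, with 100% meaning every egg infertile and 0% every egg fertile. Five engorged females per test received 1 μL DMSO solution abdominally. Eggs of unclear fertility were kept until hatching, about 42 days.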

The test system of test [2] is Rhipicephalus microplus larvae (strain Parkhurst, resistant against synthetic pyrethroids). In words: Rhipicephalus (Boophilus) microplus in-vitro contact test, larval cattle tick. To be noted: 5 μg/cm^2 (=500 g/ha), after 48 hours, read-out: efficacy (larvae dead or moribund). The gist of the method:
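Compound in acetone coated on glass tube inner walls; 900 ppm gives 5 μg/cm^2. Pyrethroid-resistant Parkhurst larvae (20-50 per tube) held at 27 °C, 85% relative humidity. Efficacy scored after 48 h from loss of negative geotaxis; 100% means all larvae dead or moribund.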

Test [3] deals with cattle ticks (Rhipicephalus microplus) strain Parkhurst, SP-resistant. The test is described as follows: Rhipicephalus (Boophilus) microplus dip test. The conditions noted are these: 100 ppm, after 7 days. As for the experimental part:
Rhipicephalus (Boophilus) microplus—Dip Test
Test animal: cattle ticks (Rhipicephalus microplus) strain Parkhurst, SP-resistant
Solvent: dimethyl sulfoxide
To produce a suitable preparation of active compound, 10 mg of active compound are dissolved in 0.5 mL solvent, and the concentrate is diluted with water to the desired concentration.
This compound solution is pipetted into tubes. 8-10 engorged, adult, female cattle ticks (Rhipicephalus microplus) are placed in perforated tubes. These tubes are immersed in the aqueous compound solution until the ticks are completely moistened. After the liquid has drained off, the ticks are transferred to a filter paper in a plastic tray and stored in a climate chamber.
After 7 days egg deposition of fertile eggs is monitored. Eggs where fertility is not visible are stored in a climate chamber till hatching after about 42 days. An efficacy of 100% means all eggs are infertile; 0% means all eggs are fertile.

Test [4] has as its system Blattella germanica strain PAULINIA
In words: Blattella germanica test (BLTTGE surface treatment & contact assay). To be noted: surface concentration 20 mg/m^2, 30 minutes exposure, 24 hours after contact, read-out: efficacy (mortality). The method, then: Blattella germanica Test (BLTTGE Surface Treatment & Contact Assay)
Solvent: Aceton+2000 ppm rapeseed oil methyl ester (RME)
In order to produce a sufficient, active ingredient containing solution it is necessary to solve the test compound in the solvent-mix (acetone at 2 mg/ml/RME 2000 ppm). This solution is pipetted onto a glazed tile and after evaporation of the acetone, adult animals of the species Blattella germanica strain PAULINIA are placed onto the dried surface. The exposure time is 30 minutes. Mortality in percent (%) is determined 24 hours after contact of the insects to the treated surface. 100% mortality means that all tested insects are dead, whereas 0% means that no insect died.

Test [5] concerns adult unfed cat fleas (Ctenocephalides felis). The test is described as follows: Ctenocephalides felis oral test. To be noted: 48 h. The gist of the method:
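About 20 adult unfed fleas fed through parafilm on cattle blood containing compound (DMSO concentrate diluted in blood); blood held at 37° C., fleas at room temperature. Mortality in % scored after 2 days (100% = all killed).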

In test [6] the test system is green peach aphid (Myzus persicae). The test is described as follows: Myzus persicae spray test. To be noted: foliar, 120 h, after 5 days, Chinese cabbage leaf disks. In a few lines: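 Chinese cabbage leaf disks infested with all instars of Myzus persicae were sprayed with compound formulated in acetone/dimethylformamide and diluted in water containing 1000 ppm emulsifier. Percent mortality was scored after 5 days.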

Molecules are shown by their SMILES.

In the case of `CC(NC(=O)c1cc(C(F)(F)F)cc(C(F)(F)F)c1)c1nc(Cl)nn1-c1ncccn1` (centres unmarked) [Example I-002], the pest or weed control at 0.004 mg in test [1] turned out to be 100%. In addition, the pest or weed control at 0.02 mg in test [1] (20 μg/animal) turned out to be 100%. Also, the pest or weed control at 5 µg/cm2 in test [2] came to 100%. In addition, the “efficacy (infertile eggs)” value in test [3] is listed as 80%. The mortality at 20 mg/m2 in test [4] is 80 to 100%. The same compound registered a mortality at 100 ppm in test [5] of 100%.

For `CC(NC(=O)c1cc(C(F)(F)F)cc(C(F)(F)F)c1)c1nc(Br)nn1-c1ncccn1` (centres unmarked) [Example I-010], the pest or weed control at 0.004 mg in test [1] amounted to 100%. Moreover, the pest or weed control at 5 µg/cm2 in test [2] came out at 100%. Besides, the mortality at 100 g/ha in test [6] came to 90%. In addition, the mortality at 100 ppm in test [5] was determined as 100%.

As for `CC(NC(=O)c1cc(C(F)(F)F)cc(C(F)(F)F)c1)c1nc(I)nn1-c1ncccn1` (centres unmarked) [Example I-021], the pest or weed control at 5 µg/cm2 in test [2] amounted to 100%. Moreover, the mortality at 20 mg/m2 in test [4] fell in the range of 80 to 100%. In test [6], this compound had a mortality at 100 g/ha of 90%. This compound returned a mortality at 100 ppm in test [5] of 100%.

Broadly, the mortality is the share of the test organisms that died.

(Values after patent US20220386611A1, “NOVEL HETEROARYL-TRIAZOLE COMPOUNDS AS PESTICIDES” (Bayer Aktiengesellschaft, priority 2019, published 2022).)
